# Legend:
# [1] = system: multiple myeloma and plasma cell leukemia cell lines (OPM2.P10, RPMI.8226, L363, JJN-3); experiment: Combination with proteasome inhibitor pulse (flow cytometry, 72 h); assay type: cell-based, human; conditions: then Compound 2 72 h
# Protocol: Twenty four hours prior to treatment with a proteasome inhibitor and test compound, an appropriate number of cells were split to a concentration of 0.2×10^6/mL in fresh media to allow for exponential growth. On the day of treatment, compounds were freshly solvated in DMSO. Proteasome inhibitors bortezomib or carfilzomib were diluted and added to pre-warmed culture media at the final working concentrations of 150 nM or 300 nM for bortezomib and 300 nM or 550 nM for carfilzomib. Proteasome inhibitor concentrations were determined based upon clinical Cmax concentrations as well as previous studies in each cell line which determined the duration and concentration of PI required to inhibit a specific amount of β5 proteasome activity. Cells were counted and an appropriate number were placed into media containing proteasome inhibitor and thoroughly mixed. After incubation for 1 h at 37° C., 5% CO2, cells were washed two times with 40 mL of complete media to remove the proteasome inhibitor. […] Plated cells were cultured at 37° C., 5% C02, for the remainder of the experiment, up to 72 h. Every 24 h, proteasome inhibition was monitored by the Cell-Based Proteasome-Glo Assay. Proliferation and apoptosis were measured at 72 h by flow cytometry. Cells were stained with APC Annexin-V and 7-AAD to enumerate the number of viable cells remaining in culture.
# An in vitro cell assay was established in order to mimic the clinical pharmacokinetics (PK) and pharmacodynamics (PD) of exposure to proteasome inhibitors bortezomib and carfilzomib.
# [2] = system: H929-1051; experiment: Coculture of compound-treated anti-CD3-activated PBMCs with untreated myeloma cells; assay type: cell-based; conditions: Homo sapiens, untreated H929-1051, T:E 1:5, 24 h, read-out: IC50 tumor cell lysis by compound-treated PBMCs
# Protocol: (§1) Coculture Assays with Compound-treated Human Peripheral Blood Mononuclear Cells and Untreated Myeloma Cell Lines. Methods: Cell Culture. All myeloma cell lines were kept in log phase, and cell density and viability were monitored by trypan blue exclusion using the Vi-CELL XR cell viability analyzer.
# (§2) PBMC Treatment Assay Procedure. Ninety-six-well dishes were pre-coated with anti-CD3 antibody (OKT3, 3 μg/mL) and incubated at 4° C. overnight before the start of the experiment. Frozen PBMC donors, were thawed at 37° C. for 2 minutes in RPMI medium with 10% FBS and cell counts and viability were measured on the Vi-CELL® (Beckman Coulter). Peripheral blood mononuclear cells were washed and diluted to 1×10^6 cells/mL and dispensed to the compound-treated plates in a total volume of 200 μL. Cells were incubated with compounds for 2 h before being transferred onto anti-CD3-coated plates and incubated for an additional 72 h at 37° C. After 72 h, the PBMCs were centrifuged, and cells were washed twice in RPMI medium+10% FBS. […] Peripheral blood mononuclear cells were counted and added to the MM cells at a target:effector (T:E) ratio of 1:5. After 24 h co-culture, specific target cell lysis by PBMCs was measured using Annexin V-AF647 and 7-AAD according to manufacturer's instructions and samples were run on the Attune NxT Cytometer (Thermo Fisher).
# [3] = system: NCI-H929; experiment: as above; assay type: cell-based; conditions: Homo sapiens, T:E 1:5, 24 h, read-out: IC50 tumor cell lysis by compound-treated PBMCs
# Protocol: as §1, §2
# [4] = system: THLE-2; experiment: Anti-proliferative counter-screen (CellTiter-Glo, 72 h); assay type: cell-based; conditions: Homo sapiens
# [5] = system: H929-1051 xenograft; experiment: Lenalidomide-resistant H929-1051 xenograft, continuous QD dosing; assay type: in vivo, mouse
# Description: FIG. 4. Antitumor activity of Compound 2 with continuous dosing in lenalidomide-resistant H929-1051 xenograft model. Female SCID mice were inoculated with 10×10^6 H929-1051 tumor cells into the right flank. Mice were randomized into treatment groups (n=10/group) at the time of treatment initiation. Test article treatment started on Day 14 when the tumors were approximately 120 mm^3.
# Antitumor Activity of Compound 2 in Lenalidomide-resistant Multiple Myeloma Xenograft Model. The purpose of the study was to test the single agent antitumor activity of Compound 2 in an H929-1051 xenograft model with once daily dosing (QD) at 1, 3, 10, and 30 mg/kg.
# [6] = system: lenalidomide-resistant NCI-H929 (H929-1051) multiple myeloma/plasmacytoma tumors; experiment: H929-1051 xenograft, Compound 2 alone and with dexamethasone; assay type: in vivo, mouse
# [7] = system: lenalidomide-resistant NCI-H929 (H929-1051) multiple myeloma/plasmacytoma tumors; experiment: H929-1051 xenograft, Compound 2 alone and with bortezomib; assay type: in vivo, mouse
# [8] = system: MM cell lines; experiment: Daratumumab-mediated ADCC assay; assay type: cell-based, human
# Protocol: ADCC Assay: The effect of Compound 2 or pomalidomide on daratumumab-mediated ADCC was evaluated in vitro by flow cytometry in a panel of MM cell lines. The NK cells were cultured overnight in NK culture medium containing 10 U/mL of recombinant human IL-2 before the start of the assay. The NK cells were washed and resuspended back in NK cell culture medium at 3.75×10^6 cells/mL. The MM cells were pretreated with sub-lethal concentrations of Compound 2 or pomalidomide for 72 h before using in the ADCC assay. The MM cells were washed and labelled with Tag-it Violet™ Proliferation and Cell Tracking Dye according to the manufacturer's instructions, followed by resuspension in NK culture medium at a concentration of 0.75×10^6 cells/mL. The ADCC assay was performed in triplicate with an effector to tumor ratio of 10:1 in a 96 well plate. MM cells (10 μL) were mixed with 10 μL of 2× concentration of daratumumab in the wells before the addition of 20 μL of NK cells. The co-cultures were incubated at 37° C. for 3 h followed by the addition of 50 μL of 7-AAD solution at room temperature for 15 minutes. The analysis was performed on a BD Celesta flow cytometer.
# [9] = system: lenalidomide-resistant multiple myeloma cells (H929-1051); experiment: Apoptosis induction with dexamethasone combinations (Caspase-Glo 3/7, 72 h); assay type: cell-based, human
# Protocol: Methods: Dexamethasone was assessed for its ability to induce apoptosis as a single agent or in combination with Compound 2, pomalidomide, or lenalidomide. Induction of apoptosis was measured using Caspase-Glo in lenalidomide-resistant multiple myeloma cells (H929-1051). Dexamethasone was dispensed at 20 concentrations, using an acoustic dispenser. The test articles were added as single concentrations onto the dexamethasone wells with a Hewlett-Packard D300 Digital Dispenser. The final concentrations of compounds for the assay were: dexamethasone (0.8 μM to 0.00002 μM), lenalidomide (1 μM), pomalidomide (0.1 μM), and Compound 2 (0.001, 0.01, or 0.1 μM). Cells were dispensed into the assay plates with a Multidrop dispenser and duplicate plates were made for the assay. The apoptosis read was taken at 72 h post-compound treatment using a Caspase-Glo 3/7 and CellTiter-Glo Assays. The Caspase-Glo 3/7 luminescence was normalized to the CellTiter-Glo luminescence to account for differences in cell number. The fold change of the treated sample was calculated as follows: normalized caspase of treated sample/average of normalized DMSO control.
# [10] = system: unstimulated primary human PBMCs; experiment: Anti-proliferative counter-screen (CellTiter-Glo, 72 h); assay type: cell-based; conditions: PBMC
structure (smiles),measurement,setting,value
"N#Cc1ccc(N2CCN(Cc3ccc(COc4cccc5c4CN([C@H]4CCC(=O)NC4=O)C5=O)cc3)CC2)c(F)c1 [Compound 2, (S)-4-(4-(4-(((2-(2,6-dioxopiperidin-3-yl)-1-oxoisoindolin-4-yl)oxy)methyl)benzyl)piperazin-1-yl)-3-fluorobenzonitrile]",effect in combination with bortezomib,"[1]; 1 h bortezomib pulse, OPM2.P10, RPMI.8226, JJN-3",demonstrated a combination effect
same,effect in combination with carfilzomib,"[1]; 1 h carfilzomib pulse, 4 cell lines",combination effects with Compound 2 were demonstrated in all 4 cell lines
same,IC50,[2],0.2 nM
same,IC50,[3],5 nM
same,IC50,[4],> 10000 nM
same,tumor volume reduction,[5]; 1 mg/kg QD,75%
same,tumor volume reduction,[5]; 3 mg/kg QD,86%
same,tumor volume reduction,[5]; 10 mg/kg QD,84%
same,tumor volume reduction,[5]; 30 mg/kg QD,85%
same,combination antitumor activity (fractional product method),[6]; Compound 2 0.1 mg/kg and dexamethasone 0.5 mg/kg,synergistic
same,tumor volume reduction (TVR),[6]; Compound 2 0.1 mg/kg in combination with dexamethasone 0.5 mg/kg,84%
same,tumor growth inhibition / tumor volume reduction (TVR),[6]; single agent Compound 2 0.1 mg/kg oral once daily,34%
same,tumor volume reduction (TVR),"[7]; Compound 2 1 mg/kg qd×3 in combination with bortezomib 1 mg/kg single dose, day 50",98%
same,combination antitumor activity (fractional product method),[7]; Compound 2 1 mg/kg with second agent 1 mg/kg,synergistic
same,animals that became tumor free and remained tumor free,"[7]; combination of Compound 2 and bortezomib, by day 53",7 out of 9
same,tumor growth inhibition / tumor volume reduction (TVR),"[7]; single agent Compound 2 1 mg/kg qd×3 (days 31-33), day 50",44%
same,day by which tumors reached approximately 2000 mm^3,"[7]; single agent, 1 mg/kg",58 days
same,daratumumab-mediated ADCC of pretreated MM cells,"[8]; 72 h pretreatment, sub-lethal concentrations, NK cells E:T 10:1",higher degree of tumor lysis with daratumumab compared to untreated cells
same,daratumumab-mediated ADCC,[8]; ARH-77 cell line,enhanced ADCC
same,combination effect with dexamethasone on cell viability and apoptosis,"[9]; Compound 2 0.001, 0.01, 0.1 μM",synergized with dexamethasone
same,shift of the onset of dexamethasone activity in the presence of Compound 2,[9]; caspase-3 induction,1 log
same,IC50,[10],> 10000 nM
